Experimental data taken from PubChem BioAssay (NCI).
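Five concentrations, 48 hours, 96-well plates. Abbreviation: GI50, concentration required for 50% inhibition of growth. Definition used: TGI = concentration required for complete inhibition of growth.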

Columns and labels:
Experiment in all cases: DTP human tumour cell line panel, 48 h
NCI-H23 lung = test system: NCI-H23 lung
HOP-92 NSCLC = test system: HOP-92 NSCLC
UO-31 renal = test system: UO-31 renal
SF-295 CNS = test system: SF-295 CNS
HS 578T breast = test system: HS 578T breast
OVCAR-3 ovarian = test system: OVCAR-3 ovarian
OVCAR-8 ovarian = test system: OVCAR-8 ovarian
LXFL 529 NSCLC = test system: LXFL 529 NSCLC
KM20L2 colon = test system: KM20L2 colon
SNB-78 CNS = test system: SNB-78 CNS

Row | Structure (SMILES) | GI50 (NCI-H23 lung) | TGI (NCI-H23 lung) | GI50 (HOP-92 NSCLC) | TGI (HOP-92 NSCLC) | GI50 (UO-31 renal) | TGI (UO-31 renal) | GI50 (SF-295 CNS) | TGI (SF-295 CNS) | GI50 (HS 578T breast) | TGI (HS 578T breast) | GI50 (OVCAR-3 ovarian) | TGI (OVCAR-3 ovarian) | GI50 (OVCAR-8 ovarian) | TGI (OVCAR-8 ovarian) | TGI (LXFL 529 NSCLC) | TGI (KM20L2 colon) | TGI (SNB-78 CNS) | GI50 (KM20L2 colon)
1 | CC1(C)CNc2cc(NC(=O)c3cccnc3NCc3ccncc3)ccc21 | 27.6 µM | > 100 µM | 19.4 µM | 80.6 µM | 20 µM | > 100 µM | 24.2 µM | > 100 µM | 26.8 µM | > 100 µM | 21.9 µM | > 77.5 µM | 33.3 µM | > 100 µM |  |  |  | 
2 | CC1/C(=N\O)CC(c2ccccc2)N(C)C1c1ccccc1 (centres undefined) |  | > 100 µM |  | > 100 µM |  | > 100 µM |  | > 100 µM |  |  |  | > 100 µM |  | > 100 µM | > 100 µM | > 100 µM | > 100 µM | 
3 | O=C1C(c2ccc(Br)cc2)=[N+]([O-])c2ccccc21 |  | 30.4 µM |  | 20.1 µM |  | 38.7 µM |  |  |  |  |  | 28.2 µM |  | 25.1 µM | 18.8 µM | 38.5 µM |  | 
4 | CCN(Cc1ccccc1)C1CCN(Cc2cc(Br)ccc2O)CC1 | 34.9 µM | > 100 µM | 10.4 µM | > 100 µM | 24 µM | > 100 µM | 25.6 µM | > 100 µM | 57.2 µM | > 100 µM | 80.6 µM | > 100 µM | 76.6 µM | > 100 µM |  |  |  | 
5 | O=C(CC1OC(O)C(Cl)=C1Cl)c1cccnc1 (centres undefined) |  | > 100 µM |  | > 100 µM |  | > 100 µM |  | > 100 µM |  |  |  | > 100 µM |  | > 100 µM | > 100 µM | > 100 µM | > 100 µM | 
6 | CCc1ccc(CCC(=O)Nc2ncc(Cc3ccc(Cl)cc3)s2)o1 | 1.53 µM | > 100 µM | 4.61 µM | > 100 µM | 0.65 µM | > 100 µM | 0.374 µM | > 100 µM | 0.3 µM | 27.9 µM | 0.248 µM | 0.682 µM | 0.572 µM | > 100 µM |  |  |  | 
7 | CN(c1ccc(C(=O)c2ccc(N(C)S(C)(=O)=O)cc2)cc1)S(C)(=O)=O |  | > 100 µM |  | > 100 µM |  | > 100 µM |  | > 100 µM |  |  |  |  |  | > 100 µM | > 100 µM | > 100 µM | > 100 µM | 
8 | Cc1cccc(C2SCc3nc4ccccc4n32)c1 (centres undefined) |  |  |  | 47.9 µM |  |  |  | > 100 µM |  |  |  | 39.1 µM |  | > 100 µM | > 100 µM |  | 99.4 µM | 
9 | O=c1[nH]c2ccccc2nc1/C=C(\O)c1ccccc1O |  | > 100 µM |  | > 100 µM |  | > 100 µM |  | > 100 µM |  |  |  | > 100 µM |  | > 100 µM | > 100 µM | > 100 µM | > 100 µM | 
10 | COc1ccc(-c2nc(-c3ccc(C)cc3)cn3ccnc23)cc1 | > 50 µM | > 50 µM | 16.2 µM | > 50 µM | 12 µM | > 50 µM | 3.69 µM | > 50 µM | 20.4 µM | > 50 µM | 4.46 µM | > 50 µM | > 5 µM | > 5 µM |  |  |  | 
11 | CCOP(=O)(OCC)C1CCCOC1=O (centres undefined) |  | > 100 µM |  |  |  | > 100 µM |  | > 100 µM |  |  |  | > 100 µM |  | > 100 µM | > 100 µM | > 100 µM | > 100 µM | 
12 | COc1ccc(CN2c3ccccc3Sc3ccccc32)c(C(F)(F)F)c1 | 1.03 µM | 93.4 µM | 0.227 µM | 44.9 µM | 3.98 µM | > 100 µM | 0.32 µM | 2.67 µM | 0.877 µM | > 100 µM | 0.513 µM | 24.3 µM | 2.22 µM | > 100 µM |  |  |  | 
13 | CN(C)C(=N/O)/C(=N\O)N(C)C |  | > 100 µM |  | > 100 µM |  | > 100 µM |  | > 100 µM |  |  |  |  |  | > 100 µM | > 100 µM | > 100 µM | > 100 µM | 
14 | Cc1cc2c(C)n(Cc3ccccc3Cl)nc2c(C(=O)O)c1C |  | > 100 µM |  | > 100 µM |  | > 100 µM |  | > 100 µM |  |  |  | > 100 µM |  | > 100 µM | > 100 µM | > 100 µM | > 100 µM | 
15 | Cc1ccccc1NC(=O)c1sc2nc(C)c(C(=O)/C=C/c3ccccc3)cc2c1N | 1.21 µM | 3.16 µM | 1.48 µM | 7.26 µM | 0.814 µM | 1.53 µM | 2.43 µM | 16.8 µM | 1.77 µM | > 50 µM | 1 µM | 2.12 µM | 1.6 µM | > 50 µM |  |  |  | 
16 | O=C([CH-]C(=O)c1ccccc1)c1ccccc1.[CH-]1CCCCC1.[CH-]1CCCCC1.[CH-]1CCCCC1.[Sn+4] | 6.06 µM | 20.3 µM |  |  | 12.5 µM | 25 µM | 8.1 µM | 22.1 µM |  |  | 5.89 µM | 19.8 µM | 5.47 µM | 55.4 µM |  | 26.3 µM |  | 12.3 µM
17 | COC(=O)C1=C(O)[C@H](C(=O)OC)C2(O)C(C(=O)OC)[C@H](c3ccc(OC(=O)C(C)c4ccc(CC(C)C)cc4)cc3)C[C@@H]1[C@@H]2C(=O)OC (some centres undefined) | 11.1 µM | 24.9 µM | 32.8 µM | > 50 µM | 12.3 µM | > 50 µM | > 50 µM | > 50 µM | 33 µM | > 50 µM | > 50 µM | > 50 µM | 13.1 µM | > 50 µM |  |  |  | 
18 | COC(=O)N/N=C(\C)c1c(O)cc(C)oc1=O |  | > 100 µM |  | > 100 µM |  | > 100 µM |  | > 100 µM |  |  |  |  |  | > 100 µM | 45.5 µM | > 100 µM | > 100 µM | 
19 | CCC(C)[C@H](NC(=O)Nc1cc(C(F)(F)F)cc(C(F)(F)F)c1)C(=O)N[C@@H](Cc1cn(C)cn1)C(=O)OC (some centres undefined) | 6.15 µM |  | 1.31 µM | 1.89 µM | 1.52 µM | 2.31 µM | 1.36 µM | 1.95 µM | 1.47 µM | 2.61 µM | 0.621 µM | 1.14 µM | 0.634 µM | 1.33 µM |  |  |  | 
